Data reported in publication PMC3743547 (Biochemistry, 2013).

Tests used:
MppR [1] = target: T1, MppR (Streptomyces hygroscopicus, UniProt Q643B8); experiment: steady-state kinetics of aldol condensation; format: biochemical; settings: co-substrate pyruvate; no saturation below the solubility limit
MppR [2] = target: T1, MppR; experiment: X-ray crystal structure, […] Å; format: binding; settings: covalent; Schiff base with Lys156; 30 mM sodium pyruvate, 24 h soak

| Compound | Km (MppR [1]) [mM] | X-ray crystal structure, 1.72 Å (crystal soak) (MppR [2]) |
| --- | --- | --- |
| O=Cc1c[nH]cn1 [compound 6, 4-imidazolecarboxaldehyde] | > 50 |  |
| CC(=O)C(=O)O [pyruvate] |  | resulting structure showed pyruvate covalently bound to Lys156 as the Schiff base |
